Test results taken from patent publication US20150105252A1, “SUBSTITUTED PYRAZOLES AS HERBICIDES” (E I DU PONT DE NEMOURS AND COMPANY, priority 2013, published 2015).

Columns and labels:
[1] = test system: corn; assay: Test A preemergence; type: in vivo, Zea mays; settings: preemergence
How it was run: (§1)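 Growth medium: loam soil blended with sand. Preemergence treatment used a directed soil spray right after planting; postemergence treatment targeted seedlings at one to two leaves (2–10 cm height). Response was judged by eye relative to untreated plants about 10 days later on a 0–100 control scale.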

[2] = test system: johnsongrass; assay: Test C postemergence; type: in vivo, Sorghum halepense; settings: for Plant response rating (scale of 0 to 100 where 0 is no effect and 100 is complete control), Johnsongrass: Postemergence, 31 g ai/ha, visually evaluated after 13 to 15 days; for Johnsongrass plant response rating / Plant response rating, Johnsongrass: postemergence; for Johnsongrass plant response rating: 62 g ai/ha, scale 0 to 100
How it was run: (§2)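 Visual rating, 0–100 scale (0 no effect, 100 complete control), vs untreated controls after 13–15 d greenhouse. Pre: seeds in loam/sand, treated at sowing. Post: plants in peat-based mix, 1- to 4-leaf (2–18 cm). Solvent + surfactant formulation, non-phytotoxic.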

[3] = test system: wheat; assay: Test C preemergence; type: in vivo, Triticum aestivum; settings: for Plant response rating (scale of 0 to 100), Wheat: Preemergence, 250 g ai/ha
How it was run: as §2

[4] = test system: velvetleaf; assay: Test A postemergence; type: in vivo, Abutilon theophrasti
How it was run: as §1

[5] = test system: sedge, umbrella; assay: Test B flood; type: in vivo, Cyperus difformis; settings: 250 g ai/ha, visual rating on 0 to 100 scale (0 no effect, 100 complete control), 13 to 15 days
How it was run: (§3)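 Two-leaf-stage plants, pots flooded (3 cm above soil) and treated through the water, which stayed at that depth. After 13–15 days in greenhouse conditions, visual assessment versus controls: 0 is no effect, 100 complete control, dash means no result.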

[6] = test system: velvetleaf; assay: Test C postemergence; type: in vivo, Abutilon theophrasti; settings: for Plant response rating (scale of 0 to 100 where 0 is no effect and 100 is complete control), Velvetleaf: Postemergence, 31 g ai/ha, visually evaluated after 13 to 15 days; for Velvetleaf plant response rating / Plant response rating, Velvetleaf: postemergence; for Velvetleaf plant response rating: 62 g ai/ha, scale 0 to 100
How it was run: as §2

[7] = test system: foxtail, giant; assay: Test A preemergence; type: in vivo, Setaria faberii; settings: preemergence
How it was run: as §1

[8] = test system: wheat; assay: Test C postemergence; type: in vivo, Triticum aestivum; settings: for Plant response rating (scale of 0 to 100 where 0 is no effect and 100 is complete control), Wheat: Postemergence, 31 g ai/ha, visually evaluated after 13 to 15 days; for Wheat plant response rating / Plant response rating, Wheat: postemergence; for Wheat plant response rating: 62 g ai/ha, scale 0 to 100
How it was run: as §2

[9] = test system: velvetleaf; assay: Test A preemergence; type: in vivo, Abutilon theophrasti; settings: preemergence
How it was run: as §1

[10] = test system: velvetleaf; assay: Test C preemergence; type: in vivo, Abutilon theophrasti; settings: for Plant response rating (scale of 0 to 100), Velvetleaf: Preemergence, 250 g ai/ha
How it was run: as §2

[11] = test system: lambsquarters; assay: Test C postemergence; type: in vivo, Chenopodium album; settings: for Plant response rating (scale of 0 to 100 where 0 is no effect and 100 is complete control), Lambsquarters: Postemergence, 31 g ai/ha, visually evaluated after 13 to 15 days; for Lambsquarters plant response rating / Plant response rating, Lambsquarters: postemergence; for Lambsquarters plant response rating: 62 g ai/ha, scale 0 to 100
How it was run: as §2

[12] = test system: crabgrass, large; assay: Test C preemergence; type: in vivo, Digitaria sanguinalis; settings: for Plant response rating (scale of 0 to 100), Crabgrass, Large: Preemergence, 250 g ai/ha
How it was run: as §2

[13] = test system: waterhemp; assay: Test C postemergence; type: in vivo, Amaranthus rudis; settings: for Plant response rating (scale of 0 to 100 where 0 is no effect and 100 is complete control), Waterhemp: Postemergence, 31 g ai/ha, visually evaluated after 13 to 15 days; for Waterhemp plant response rating / Plant response rating, Waterhemp: postemergence; for Waterhemp plant response rating: 62 g ai/ha, scale 0 to 100
How it was run: as §2

[14] = test system: pigweed; assay: Test A postemergence; type: in vivo, Amaranthus retroflexus
How it was run: as §1

[15] = test system: rice; assay: Test B flood; type: in vivo, Oryza sativa; settings: 250 g ai/ha, visual rating on 0 to 100 scale (0 no effect, 100 complete control), 13 to 15 days
How it was run: as §3

[16] = 125 g ai/ha, visual injury, 0 to 100 scale, approx. 10 days
[17] = 500 g ai/ha, visual injury after approx. 10 days, 0 to 100 scale (0 no effect, 100 complete control)
[18] = 250 g ai/ha, scale 0 to 100 (0 no effect, 100 complete control)
[19] = 125 g ai/ha, scale 0 to 100, 0 no effect, 100 complete control
[20] = preemergence, 31 g ai/ha, visual rating, scale 0 to 100 (0 no effect, 100 complete control), 13 to 15 days
[21] = preemergence, 62 g ai/ha, scale 0 to 100 (0 no effect, 100 complete control), 13 to 15 days
[22] = preemergence, 125 g ai/ha, scale 0 to 100, 0 is no effect, 100 is complete control
[23] = Postemergence, 500 g ai/ha, visual rating after approx. 10 days, 0 to 100 scale (0 no effect, 100 complete control)
[24] = postemergence, 125 g ai/ha, about 10 days, visual rating on 0 to 100 scale (0 no effect, 100 complete control)
[25] = preemergence, 125 g ai/ha, 13 to 15 days, scale 0 to 100, 0 = no effect, 100 = complete control
[26] = Postemergence, 500 g ai/ha, 0 to 100 scale (0 no effect, 100 complete control)

CCc1cc(C(=O)NCC(F)(F)F)nn1Cc1nc(C(F)(F)F)nn1C [Compound 107]
Corn plant response rating [1, 16]: 30 | Corn plant response rating [1, 17]: 80 | Plant response rating (scale of 0 to 100 where 0 is no effect and 100 is complete control), Johnsongrass [2]: 0 | Johnsongrass plant response rating [2]: 0 | Plant response rating, Johnsongrass [2, 18]: 70 | Plant response rating, Johnsongrass [2, 19]: 5 | Plant response rating (scale of 0 to 100), Wheat [3]: 50 | Wheat plant response rating [3, 20]: 5 | Wheat plant response rating [3, 21]: 15 | Wheat plant response rating [3, 22]: 50 | Velvetleaf plant response rating [4, 23]: 100 | Velvetleaf plant response rating [4, 24]: 80 | Plant response rating, Sedge, Umbrella [5]: 80 | Plant response rating (scale of 0 to 100 where 0 is no effect and 100 is complete control), Velvetleaf [6]: 30 | Velvetleaf plant response rating [6]: 30 | Plant response rating, Velvetleaf [6, 18]: 50 | Plant response rating, Velvetleaf [6, 19]: 35 | Foxtail, Giant plant response rating [7, 16]: 100 | Foxtail, Giant plant response rating [7, 17]: 100 | Plant response rating (scale of 0 to 100 where 0 is no effect and 100 is complete control), Wheat [8]: 0 | Wheat plant response rating [8]: 5 | Plant response rating, Wheat [8, 18]: 30 | Plant response rating, Wheat [8, 19]: 20 | Velvetleaf plant response rating [9, 16]: 90 | Velvetleaf plant response rating [9, 17]: 100 | Plant response rating (scale of 0 to 100), Velvetleaf [10]: 100 | Velvetleaf plant response rating [10, 20]: 60 | Velvetleaf plant response rating [10, 21]: 85 | Velvetleaf plant response rating [10, 22]: 100 | Plant response rating (scale of 0 to 100 where 0 is no effect and 100 is complete control), Lambsquarters [11]: 40 | Lambsquarters plant response rating [11]: 40 | Plant response rating, Lambsquarters [11, 18]: 90 | Plant response rating, Lambsquarters [11, 19]: 70 | Plant response rating (scale of 0 to 100), Crabgrass, Large [12]: 98 | Crabgrass, Large plant response rating [12, 20]: 98 | Crabgrass, Large plant response rating [12, 21]: 98 | Crabgrass, Large plant response rating [12, 22]: 98 | Plant response rating (scale of 0 to 100 where 0 is no effect and 100 is complete control), Waterhemp [13]: 5 | Waterhemp plant response rating [13]: 40 | Plant response rating, Waterhemp [13, 18]: 80 | Plant response rating, Waterhemp [13, 19]: 40 | Pigweed plant response rating [14, 23]: 100 | Pigweed plant response rating [14, 24]: 100 | Plant response rating, Rice [15]: 30

CCONC(=O)c1cc(CC)n(Cc2ccnc(OC(F)F)c2)n1 [Compound 131]
Corn plant response rating [1, 16]: 60 | Corn plant response rating [1, 17]: 90 | Plant response rating (scale of 0 to 100 where 0 is no effect and 100 is complete control), Johnsongrass [2]: 0 | Johnsongrass plant response rating [2]: 0 | Plant response rating, Johnsongrass [2, 18]: 10 | Plant response rating, Johnsongrass [2, 19]: 0 | Plant response rating (scale of 0 to 100), Wheat [3]: 95 | Wheat plant response rating [3, 20]: 45 | Wheat plant response rating [3, 21]: 85 | Plant response rating, Wheat [3, 25]: 50 | Velvetleaf plant response rating [4, 26]: 100 | Velvetleaf plant response rating [4, 24]: 90 | Plant response rating, Sedge, Umbrella [5]: 90 | Plant response rating (scale of 0 to 100 where 0 is no effect and 100 is complete control), Velvetleaf [6]: 5 | Velvetleaf plant response rating [6]: 25 | Plant response rating, Velvetleaf [6, 18]: 55 | Plant response rating, Velvetleaf [6, 19]: 35 | Foxtail, Giant plant response rating [7, 16]: 90 | Foxtail, Giant plant response rating [7, 17]: 100 | Plant response rating (scale of 0 to 100 where 0 is no effect and 100 is complete control), Wheat [8]: 5 | Wheat plant response rating [8]: 5 | Plant response rating, Wheat [8, 18]: 10 | Plant response rating, Wheat [8, 19]: 10 | Velvetleaf plant response rating [9, 16]: 90 | Velvetleaf plant response rating [9, 17]: 100 | Plant response rating (scale of 0 to 100), Velvetleaf [10]: 100 | Velvetleaf plant response rating [10, 20]: 25 | Velvetleaf plant response rating [10, 21]: 80 | Plant response rating, Velvetleaf [10, 25]: 100 | Plant response rating (scale of 0 to 100 where 0 is no effect and 100 is complete control), Lambsquarters [11]: 15 | Lambsquarters plant response rating [11]: 40 | Plant response rating, Lambsquarters [11, 18]: 85 | Plant response rating, Lambsquarters [11, 19]: 65 | Plant response rating (scale of 0 to 100), Crabgrass, Large [12]: 100 | Crabgrass, Large plant response rating [12, 20]: 90 | Crabgrass, Large plant response rating [12, 21]: 100 | Plant response rating, Crabgrass, Large [12, 25]: 100 | Plant response rating (scale of 0 to 100 where 0 is no effect and 100 is complete control), Waterhemp [13]: 55 | Waterhemp plant response rating [13]: 55 | Plant response rating, Waterhemp [13, 18]: 80 | Plant response rating, Waterhemp [13, 19]: 65 | Pigweed plant response rating [14, 26]: 100 | Pigweed plant response rating [14, 24]: 100 | Plant response rating, Rice [15]: 40
